Source: paper PMC12073402, “A Selective MAP3K1 Inhibitor Facilitates Discovery of NPM1 as a Member of the Network” (Molecules, 2025)

What was measured:
[1] = tested on: TNFα-induced, MAP3K1-mediated IKKβ phosphorylation; test: AlphaLISA phospho-IKKβ / total IKKβ assay in MiaPaCa2 cells; type: cell-based, Human; conditions: 20, 10, 5 μM, 30 min pretreatment, 10 ng/mL TNFα
Text: MAP3K1 was previously shown to phosphorylate IKKβ [12] and regulate NF-κB signaling. Therefore, we validated the ability of 51-106 to inhibit MAP3K1 by probing the phosphorylation status of the known substrate, IKKβ, using an AlphaLISA assay. The pancreatic cancer cells (MiaPaCa2) were subjected to a 30-min pretreatment with varying concentrations of 51-106, followed by TNFα stimulation to induce IKKβ phosphorylation. Following a 15-min stimulation, the levels of phospho-IKKβ and total IKKβ were quantified. […] (Figure 3A). Next, we evaluated the efficacy of 51-106 in a cell-based reporter assay utilizing a HeLa cell line that specifically responds to TNFα induced expression of a luciferase reporter gene that is under the control of an NF-κB response element.
A suspension of MiaPaCa2 cells (2 × 10^5/well) in 200 μL media was plated in a flat, clear-bottomed, sterile, 48-well tissue culture plate (Cat# 353230; Corning; Corning, NY, USA). The cells were allowed to attach to the plate for ~8 h in a humidified 5% CO2 incubator at 37 °C. […] Phospho-IKKβ levels were normalized to total […], and fold change was calculated compared to DMSO treatment. […] The statistical significance between groups was determined via unpaired t-tests coupled with post hoc analysis with Welch’s correction.

HCT116 MAP3K1 KO cells = test: PrestoBlue growth inhibition assay; type: cell-based
Text: (§1) To investigate the target dependency of 51-106 activity, MAP3K1 was genetically knocked out (KO) in HCT116 cells using CRISPR-Cas9 technology (Gene Editing and Screening Core Facility, Memorial Sloan Kettering Cancer Center). The HCT116 cell line was chosen because it is predominantly diploid, allowing for a more predictable outcome when utilizing CRISPR technology compared with cell lines with aneuploidy. […] Western blot analysis confirmed the absence of MAP3K1 protein expression in KO cells compared to non-targeting control (NTC) MAP3K1 wild-type (WT) cells (Figure 3C). The MAP3K1 primary antibody used binds to residues 50 and 100 of the N-terminus of MAP3K1. HCT116 MAP3K1 WT and MAP3K1 KO cells were subjected to PrestoBlue growth inhibition assay with 51-106 treatment. […] Further optimization of 51-106 and/or the use of emerging methods such as DNA-encoded library based screens followed by machine learning (DEL-ML) along with a comprehensive suite of biophysical and biochemical screens should be employed to develop a MAP3K1 chemical probe.
(§2) A suspension of in 90 μL media was plated per well in clear, flat-bottomed, sterile, 96-well tissue culture plates (Cat# 12-565-438; Fisher Scientific, Waltham, MA, USA). The cells were allowed to adhere overnight in a humidified 5% CO2 incubator at 37 °C. Drug working solutions were prepared from 10 mM DMSO (Cat# BP231; Fisher Scientific) stocks. Drugs were added in 6 dilutions in triplicates. Ten μL of the working solution was added to each well in the plate to yield a final concentration of 20—0.63 μM drug in 1% DMSO. Blank DMSO controls were also included. […] Fluorescence (Ex 560, Em 590) was measured on a plate reader (Spectramax M5e; Molecular Devices) to determine T0. […] Fluorescence was measured on a plate reader. Wells with 1% DMSO were used to determine T100. % Growth was calculated as [(Fluorescence read of a well − T0)/(T100 − T0)] ∗ 100. The data were plotted using Prism V 9.1.0, and the IC50 values were determined using a four-parameter Logistic Curve Fitting function.

HCT116 MAP3K1 WT cells = test: PrestoBlue growth inhibition assay; type: cell-based; conditions: Homo sapiens, HCT-116, 72 h
Text: as §1, §2

Which “TNFα-induced, MAP3K1-mediated IKKβ phosphorylation (phospho-IKKβ / total IKKβ)” value [1] does the source give for `Cn1cc(-c2cnc3ccc(NC(=O)Nc4ccc(F)c(C(F)(F)F)c4)cc3n2)cn1` [51-106, 1-(4-Fluoro-3-(trifluoromethyl)phenyl)-3-(3-(1-methyl-1H-pyrazol-4-yl)quinoxalin-6-yl)urea] here?
The value was “inhibits TNFα-induced, MAP3K1-mediated IKKβ phosphorylation in a dose-dependent manner”.

What about the “increase in IC50 in MAP3K1 KO cells” value (HCT116 MAP3K1 KO cells; HCT116 MAP3K1 KO versus WT) of the same compound?
Its value is 5 fold.

And the IC50 (HCT116 MAP3K1 KO cells; Homo sapiens, HCT-116, 72 h, HCT116 MAP3K1 KO, 72 h, PrestoBlue)?
Its IC50 is ~8.9 µM.

And the IC50 (HCT116 MAP3K1 WT cells)?
Its IC50 is ~1.8 µM.
